From patent publication US20040186166A1, “Cannabinoid analogs as peroxisome proliferator activated nuclear receptor gamma activators” (priority 2002, published 2004)

Biological target: T1, PPARα (Mus musculus, UniProt P23204)
T1 construct: expressed in transfected cells; host or cells: HEK293 / HEK293T
T1 sequence (P23204 1-468): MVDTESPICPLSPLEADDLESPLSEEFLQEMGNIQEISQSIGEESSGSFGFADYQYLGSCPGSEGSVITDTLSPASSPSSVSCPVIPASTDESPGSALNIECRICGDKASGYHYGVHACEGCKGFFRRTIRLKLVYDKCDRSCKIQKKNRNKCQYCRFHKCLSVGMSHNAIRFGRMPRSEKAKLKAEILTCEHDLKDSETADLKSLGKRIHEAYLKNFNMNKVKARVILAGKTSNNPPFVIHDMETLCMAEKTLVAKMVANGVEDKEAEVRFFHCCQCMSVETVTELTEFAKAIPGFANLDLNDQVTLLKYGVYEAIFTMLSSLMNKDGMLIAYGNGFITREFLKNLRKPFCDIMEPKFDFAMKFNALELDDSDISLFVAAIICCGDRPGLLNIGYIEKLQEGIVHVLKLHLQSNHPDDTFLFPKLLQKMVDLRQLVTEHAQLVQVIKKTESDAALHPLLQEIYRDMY
Test: PPRE-TK-LUC reporter transient transfection, PPARα
Type: cell-based
Details: 1 to 20 μM AJA
Procedure: For PPARγ activation assay, HEK293 cells were plated in 12-well cell culture plates and maintained in Dulbecco's modified Eagle's medium (DMEM) supplemented with 10% fetal bovine serum (FBS) at 37° C. under 5% CO2. Cells were changed to phenol red-free DMEM supplemented with 10% charcoal-stripped fetal bovine serum 3 hours before transfection by a standard calcium-phosphate precipitation method. Twelve hours after transfection, the cells were washed with phosphate-buffered saline (PBS) and fed again with fresh medium containing the indicated concentrations of compounds. After 36 hours, cells were harvested for β-galactosidase and luciferase activities as described previously (Li et al., Proc Natl Acad Sci USA 94:8479-84, 1997). The average normalized luciferase activity was determined via triplicate experiments. For IL-8 promoter assay, HeLa cells were maintained and transfected in the same way as described above. After transfection, cells were recovered for 4 hours before treatment with AJA, GW347845, or solvent. After 3-4 hours, cells were treated with or without 25 nM of phorbol myristate acetate (PMA) for 24 hours.
In an effort to confirm that AJA activates PPARγ selectively, the ability of AJA to activate PPARα and PPARδ was analyzed in a similar transient transfection assay.

For CCCCCCC(C)(C)c1cc(O)c2c(c1)OC(C)(C)[C@@H]1CC=C(C(=O)O)C[C@@H]21 [AJA, dimethylheptyl-THC-11-oic acid], the “activation of PPARα” value was “no further activation was observed”.
